Measured values from ChEMBL document CHEMBL4354827, “Discovery of Novel, Potent, Brain-Permeable, and Orally Efficacious Positive Allosteric Modulator of α7 Nicotinic Acetylcholine Receptor [4-(5-(4-Chlorophenyl)-4-methyl-2-propionylthiophen-3-yl)benzenesulfonamide]: Structure-Activity Relationship and Preclinical Characterization” (J Med Chem, 2020).
Calls of active or inactive are those of the source. The rule behind the calls is not given here.

Legend:
[1] = molecular target: T1, Neuronal acetylcholine receptor subunit alpha-7 (Homo sapiens, UniProt P36544); assay: Positive allosteric modulatory activity against alpha7 nAChR in human IMR-32 cells assessed as potentiation of PNU-282987-induced Ca2+ […] in presence of alpha-bungarotoxin/methyllycaconitine by FLIPR assay; assay type: cell-based
T1 sequence (P36544 whole entry): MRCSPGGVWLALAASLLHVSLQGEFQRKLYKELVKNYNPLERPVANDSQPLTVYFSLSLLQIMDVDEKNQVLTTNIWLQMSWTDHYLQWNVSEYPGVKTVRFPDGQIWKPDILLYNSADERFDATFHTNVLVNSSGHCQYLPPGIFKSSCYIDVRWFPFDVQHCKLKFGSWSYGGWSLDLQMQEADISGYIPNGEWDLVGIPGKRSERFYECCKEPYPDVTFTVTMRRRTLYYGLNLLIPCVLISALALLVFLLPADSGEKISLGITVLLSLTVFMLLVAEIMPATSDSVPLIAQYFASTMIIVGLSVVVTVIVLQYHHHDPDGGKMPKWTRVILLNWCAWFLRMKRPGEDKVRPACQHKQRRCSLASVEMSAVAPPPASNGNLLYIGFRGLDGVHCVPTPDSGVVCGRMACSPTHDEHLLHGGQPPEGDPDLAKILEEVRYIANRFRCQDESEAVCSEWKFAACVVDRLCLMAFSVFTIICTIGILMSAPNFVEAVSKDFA

[2] = Oral bioavailability in Wistar rat at 10 mg/kg after 0.25 to 144 hrs by LC-MS/MS analysis; assay type: ADME, organism-based; details: in vivo
[3] = Protein binding in human plasma assessed as unbound fraction at 5 uM incubated for 16 hrs under shaking condition by LC/MS/MS based rapid equilibrium dialysis method; assay type: ADME, cell-free
[4] = Volume of distribution at steady state in Beagle dog at 1 mg/kg, iv after 0.083 to 144 hrs by LC-MS/MS analysis; assay type: ADME, organism-based, Canis lupus familiaris; details: in vivo, read-out: Vdss
[5] = AUC (0 to 144 hrs) in Wistar rat at 10 mg/kg, po after 0.25 to 144 hrs by LC-MS/MS analysis; assay type: ADME, organism-based; parameters: dose 10 mg/kg, time < 144 hr, route oral; details: in vivo
[6] = Tmax in BALB/c mouse at 10 mg/kg, po after 0.25 to 144 hrs by LC-MS/MS analysis; assay type: ADME, organism-based; details: in vivo
[7] = Tmax in Wistar rat brain at 10 mg/kg, po after 1 to 144 hrs by LC-MS/MS analysis; assay type: ADME, organism-based
Rattus norvegicus [8] = assay: Memory enhancement effect in scopolamine-induced Wistar rat model of amnesia assessed as exploration time for familiar object in retention trial at 0.05 mg/kg, po for 7 days and measured on day 8 by novel object recognition test (reference value: 8.59 sec); assay type: functional
Rattus norvegicus [9] = assay: Memory enhancement effect in time-delay induced Wistar rat model of amnesia assessed as exploration time for familiar object in retention trial at 0.05 mg/kg, po for 7 days and measured on day 8 by novel object recognition test (reference value: 10.20 sec); assay type: functional
[10] = Volume of distribution at steady state in BALB/c mouse at 1 mg/kg, iv after 0.083 to 144 hrs by LC-MS/MS analysis; assay type: ADME, organism-based; details: in vivo, read-out: Vdss
[11] = Unbound brain-to-plasma concentration ratio in Wistar rat at 10 mg/kg, po after 4 hrs by LC-MS/MS analysis; assay type: ADME, organism-based; details: read-out: K(p,uu,brain)
Rattus norvegicus [12] = assay: Improvement in social recognition time delay-induced Sprague-Dawley rat model of amnesia assessed as increase in reduction in social investigation time at 1 mg/kg, po administered as single dose prior to 1 hr training and measured after 30 mins (reference value: 0.39%); assay type: functional; parameters: scale not given: the % may be the effect or the level left
Rattus norvegicus [13] = assay: Improvement in social recognition scopolamine-induced Sprague-Dawley rat model of amnesia assessed as increase in reduction in social investigation time at 0.05 mg/kg, po for 7 days measured after 24 hrs (Rvb =6.59%); assay type: functional; parameters: scale not given: the % may be the effect or the level left
Rattus norvegicus [14] = assay: Memory enhancement effect in time-delay induced Wistar rat model of amnesia assessed as exploration time for object2 in acquisition trial at 0.5 mg/kg, po for 7 days and measured on day 8 by novel object recognition test (reference value: 11.76 sec); assay type: functional
[15] = Cmax in Wistar rat at 1 mg/kg, iv after 0.083 to 144 hrs by LC-MS/MS analysis; assay type: ADME, organism-based; parameters: dose 1 mg/kg, route intravenous; details: in vivo
Rattus norvegicus [16] = assay: Memory enhancement effect in time-delay induced Wistar rat model of amnesia assessed as exploration time for object2 at 1 mg/kg, po administered as single dose after acquisition trial by novel object recognition test (reference value: 21.07 sec); assay type: functional
[17] = Unbound brain-to-plasma concentration ratio in Wistar rat at 10 mg/kg, po after 1 hr by LC-MS/MS analysis; assay type: ADME, organism-based; details: read-out: K(p,uu,brain)
Rattus norvegicus [18] = assay: Improvement in social recognition time delay-induced Sprague-Dawley rat model of amnesia assessed as reduction in recognition index at 0.05 mg/kg, po for 7 days and measured on day 9 (reference value: 1.05); assay type: functional
Rattus norvegicus [19] = assay: Improvement in social recognition scopolamine-induced Sprague-Dawley rat model of amnesia assessed as increase in reduction in social investigation time at 1 mg/kg, po administered as single dose prior to 1 hr training and measured after 30 mins (reference value: 9.81%); assay type: functional; parameters: scale not given: the % may be the effect or the level left
[20] = Half life in Wistar rat at 10 mg/kg, po after 0.25 to 144 hrs by LC-MS/MS analysis; assay type: ADME, organism-based; details: in vivo
Rattus norvegicus [21] = assay: Memory enhancement effect in time-delay induced Wistar rat model of amnesia assessed as exploration time for novel object at 3 mg/kg, po administered as single dose after acquisition trial by novel object recognition test (reference value: 12.81 sec); assay type: functional
Cytochrome P450 2C19 = Cytochrome P450 2C19 (Homo sapiens, UniProt P33261); assay: Inhibition of CYP2C19 (unknown origin) up to 10 uM; assay type: ADME
Sequence of Cytochrome P450 2C19 (P33261 whole entry): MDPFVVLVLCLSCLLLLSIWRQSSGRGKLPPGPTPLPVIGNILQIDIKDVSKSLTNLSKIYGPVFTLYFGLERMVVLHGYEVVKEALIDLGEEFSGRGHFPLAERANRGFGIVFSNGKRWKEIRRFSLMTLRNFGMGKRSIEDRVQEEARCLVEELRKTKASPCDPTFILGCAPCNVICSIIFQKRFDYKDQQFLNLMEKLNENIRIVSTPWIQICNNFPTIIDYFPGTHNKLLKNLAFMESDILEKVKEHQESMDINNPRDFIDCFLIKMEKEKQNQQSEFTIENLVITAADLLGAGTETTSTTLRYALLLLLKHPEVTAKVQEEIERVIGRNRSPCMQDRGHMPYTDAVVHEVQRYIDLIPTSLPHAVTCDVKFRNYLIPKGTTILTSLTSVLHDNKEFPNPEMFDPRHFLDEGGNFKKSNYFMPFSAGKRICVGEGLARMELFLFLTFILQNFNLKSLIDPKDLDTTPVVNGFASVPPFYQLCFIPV

[22] = Metabolic stability in monkey liver microsomes assessed as compound remaining at 1 uM preincubated for 5 mins followed by NADPH addition and measured after 30 mins by LC-MS/MS analysis; assay type: ADME, Macaca mulatta, Microsome; details: rhesus monkey, read-out: Stability
Rattus norvegicus [23] = assay: Improvement in social recognition time delay-induced Sprague-Dawley rat model of amnesia assessed as increase in reduction in social investigation time at 0.05 mg/kg, po for 7 days measured on day 9 (reference value: -0.5%); assay type: functional; parameters: scale not given: the % may be the effect or the level left
[24] = Drug level in Sprague-Dawley rat plasma at 0.05 mg/kg, po for 7 days; assay type: ADME, organism-based
Rattus norvegicus [25] = assay: Memory enhancement effect in scopolamine-induced Wistar rat model of amnesia assessed as exploration time for novel object in retention trial at 0.5 mg/kg, po for 7 days and measured on day 8 by novel object recognition test (reference value: 12.09 sec); assay type: functional
[26] = Unbound brain-to-plasma concentration ratio in Wistar rat at 10 mg/kg, po after 8 hrs by LC-MS/MS analysis; assay type: ADME, organism-based; details: read-out: K(p,uu,brain)
Rattus norvegicus [27] = assay: Improvement in social recognition scopolamine-induced Sprague-Dawley rat model of amnesia assessed as increase in reduction in social investigation time at 3 mg/kg, po administered as single dose prior to 1 hr training and measured after 30 mins (reference value: 9.81%); assay type: functional; parameters: scale not given: the % may be the effect or the level left
[28] = molecular target: T1, Neuronal acetylcholine receptor subunit alpha-7; assay: Positive allosteric modulatory activity against alpha7 nAChR in human IMR-32 cells assessed as potentiation of PNU-282987-induced Ca2+ […] at 1 uM by FLIPR assay relative to control; assay type: cell-based
Rattus norvegicus [29] = assay: Memory enhancement effect in scopolamine-induced Wistar rat model of amnesia assessed as increase in discrimination index at 0.5 mg/kg, po for 7 days and measured on day 8 by novel object recognition test (reference value: 0.21); assay type: functional

CCC(=O)c1sc(-c2ccc(Cl)cc2)c(C)c1-c1ccc(S(N)(=O)=O)cc1
Activity [1]: inactive
bioavailability [2]: 74%
fraction unbound at 16 h, 5 µM [3]: 0.0015
Vd [4]: 4 L/kg
AUC(0-t) at 144 h [5]: 201 µM·h
Tmax [6]: 4 h
Tmax [7]: 4 h
Time (Rattus norvegicus [8]): 8.03 s
Time (Rattus norvegicus [9]): 7.64 s
Vd [10]: 4 L/kg
Kp uu at 4 h [11]: 1.29
Activity (Rattus norvegicus [12]): 31.73%
Activity (Rattus norvegicus [13]): 44.4%
Time (Rattus norvegicus [14]): 12.42 s
Cmax [15]: 1100 nM
Time (Rattus norvegicus [16]): 25.36 s
Kp uu at 1 h [17]: 0.56
Activity_index (Rattus norvegicus [18]): 0.81
Activity (Rattus norvegicus [19]): 48.49%
half-life [20]: 45 h
Time (Rattus norvegicus [21]): 18.61 s
inhibition (INH) (Cytochrome P450 2C19): Not Active
remaining at 0.5 h, 1 µM [22]: 79%
Activity (Rattus norvegicus [23]): 18.97%
concentration at 168 h [24]: 130 nM
Time (Rattus norvegicus [25]): 15.06 s
Kp uu at 8 h [26]: 0.93
Activity (Rattus norvegicus [27]): 55.09%
fold change (FC) [28]: 22
Activity_index (Rattus norvegicus [29]): 0.45
